Structures can show the parent of a compound that is named as a salt.

The subject of the first assay is RSV Long strain. The assay can be described thus: Viral cytopathic effect (CPE) assay, anti-RSV activity. Type of assay: cell-based, Respiratory Syncytial Virus. As to conditions: RSV Long strain (ATCC); cell viability after 6 days, Cell Counting kit-8. An outline of the steps:
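Cells (6×10^3/well, DMEM with 10% FBS) were infected next day with RSV Long strain, at a dose giving approximately 80–90% CPE, alongside serial half-log compound dilutions. Viability was read after 6 days by CCK-8 absorbance at 450 nm (reference 630 nm), and EC50 was derived from it.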
The compound `Cc1ccc2nc(N3CCS(=O)(=O)c4ccccc4C3)nc(NCCC(F)CN)c2c1` (centres unmarked) [Example 62-4, N^˜4^˜-[2-(1,1-Dioxido-2,3-dihydro-1,4-benzothiazepin-4(5H)-yl)-6-methylquinazolin-4-yl]-2-fluorobutane-1,4-diamine] gave a half-maximal effective concentration (EC50) of 0.019 µM.

Staying with this assay, now noted: human respiratory syncytial virus, 144 h, RSV Long strain (ATCC); cell viability after 6 days, Cell Counting kit-8.
Take `NCCNc1cc(N2CCCc3ccccc3C2)nc2cccc(Cl)c12` [Example 119, N-[5-Chloro-2-(1,3,4,5-tetrahydro-2H-2-benzazepin-2-yl)quinolin-4-yl]ethane-1,2-diamine]: the concentration giving a half-maximal response (EC50) worked out at 6.66 µM.
Regarding `NC1(CNc2nc(N3CCS(=O)(=O)c4ccccc4C3)nc3ccccc23)COC1` [Example 57-3, N-[(3-Aminooxetan-3-yl)methyl]-2-(1,1-dioxido-2,3-dihydro-1,4-benzothiazepin-4(5H)-yl)quinazolin-4-amine], the EC50 turned out to be 0.023 µM.
Still for that read-out and setting: the same measure for `Cc1ccc2nc(N3CCS(=O)(=O)c4ccccc4C3)cc(NC(C)CC(N)=O)c2c1` (centres unmarked) [Example 36-2, 3-{[2-(1,1-Dioxido-2,3-dihydro-1,4-benzothiazepin-4(5H)-yl)-6-methylquinolin-4-yl]amino}butanamide]: 1.47 µM; for `Cc1ccc2nc(N3CCS(=O)(=O)c4ccccc4C3)cc(NCCSCCN)c2c1` [Example 8-7, N-{2-[(2-Aminoethyl)sulfanyl]ethyl}-2-(1,1-dioxido-2,3-dihydro-1,4-benzothiazepin-4(5H)-yl)-6-methylquinolin-4-amine]: 0.322 µM.
On the same count and under the same terms, the same measure for `Cc1ccc2nc(N3CCC(F)(F)c4ccccc4C3)cc(N3CCC(N)C3)c2c1` (centres unmarked) [Example 111-4, 1-[2-(5,5-Difluoro-1,3,4,5-tetrahydro-2H-2-benzazepin-2-yl)-6-methylquinolin-4-yl]pyrrolidin-3-amine]: 0.066 µM; for `COc1ccc2nc(N3CCS(=O)(=O)c4ccccc4C3)cc(NCCCN)c2c1` [Example 17-4, N-[2-(1,1-Dioxido-2,3-dihydro-1,4-benzothiazepin-4(5H)-yl)-6-methoxyquinolin-4-yl]propane-1,3-diamine]: 0.071 µM; for `Cc1ccc2nc(N3Cc4ccccc4S(=O)(=O)C(C)C3)cc(NCC3(N)COC3)c2c1` (centres unmarked) [Example 69-2, N-[(3-Aminooxetan-3-yl)methyl]-6-methyl-2-(2-methyl-1,1-dioxido-2,3-dihydro-1,4-benzothiazepin-4(5H)-yl)quinolin-4-amine]: 0.007 µM.
`CO[C@@H]1CN(c2cc(N3CCS(=O)(=O)c4ccccc4C3)nc3ccc(C)cc23)C[C@H]1N` (relative stereo) [Example 8-3, trans-1-[2-(1,1-Dioxido-2,3-dihydro-1,4-benzothiazepin-4(5H)-yl)-6-methylquinolin-4-yl]-4-methoxypyrrolidin-3-amine] gave an EC50 of 0.9 µM.
`Cc1ccc2nc(N3CCS(=O)(=O)c4ccccc4C3)cc(NCC3(N)CCOCC3)c2c1` [Example 2-3, N-[(4-Aminotetrahydro-2H-pyran-4-yl)methyl]-2-(1,1-dioxido-2,3-dihydro-1,4-benzothiazepin-4(5H)-yl)-6-methylquinolin-4-amine] showed an EC50 of 2.81 µM.
Still for that read-out and setting: the same measure for `Cc1ccc2nc(N3CCS(=O)(=O)c4ccccc4C3)cc(NCC(C)(O)CN)c2c1` (centres unmarked) [Example 11-4, 1-Amino-3-{[2-(1,1-dioxido-2,3-dihydro-1,4-benzothiazepin-4(5H)-yl)-6-methylquinolin-4-yl]amino}-2-methylpropan-2-ol]: 0.004 µM; for `Cc1ccc2nc(N3CCS(=O)(=O)c4ccccc4C3)cc(N3CCN(C)CC3)c2c1` [Example 5-6, 4-[6-Methyl-4-(4-methylpiperazin-1-yl)quinolin-2-yl]-2,3,4,5-tetrahydro-1,4-benzothiazepine 1,1-dioxide]: 2.06 µM; for `Cc1ccc2nc(N3CCC(F)(F)c4ccccc4C3)cc(N3C[C@@H](N)[C@H](O)C3)c2c1` (relative stereo) [Example 111-11, trans-4-Amino-1-[2-(5,5-difluoro-1,3,4,5-tetrahydro-2H-2-benzazepin-2-yl)-6-methylquinolin-4-yl]pyrrolidin-3-ol]: 0.588 µM.
Still for that read-out and setting: the same measure for `Cc1ccc2nc(N3CCC(F)(F)c4ccccc4C3)nc(NCC3(CN)CSC3)c2c1` [Example 114-2, N-{[3-(Aminomethyl)thietan-3-yl]methyl}-2-(5,5-difluoro-1,3,4,5-tetrahydro-2H-2-benzazepin-2-yl)-6-methylquinazolin-4-amine]: 0.975 µM.
The same measure, in the same setting: the same measure for `Cc1ccc2nc(N3CCS(=O)(=O)c4ccc(O)cc4C3)cc(NCC3(N)COC3)c2c1` [Example 66, 4-(4-{[(3-Aminooxetan-3-yl)methyl]amino}-6-methylquinolin-2-yl)-2,3,4,5-tetrahydro-1,4-benzothiazepin-7-ol 1,1-dioxide]: 0.002 µM.
With `Cc1ccc2nc(N3CCS(=O)(=O)c4ccccc4C3)cc(NCCCCN)c2c1` [Example 9-19, N-[2-(1,1-Dioxido-2,3-dihydro-1,4-benzothiazepin-4(5 H)-yl)-6-methylquinolin-4-yl]butane-1,4-diamine], the EC50 turned out to be 0.0007 µM.
The same measure, in the same setting: the same measure for `Cc1ccc2nc(N3CCS(=O)(=O)c4ccccc4C3)cc(NCCCCCCCCN)c2c1` [Example 12-5, N-[2-(1,1-Dioxido-2,3-dihydro-1,4-benzothiazepin-4(5H)-yl)-6-methylquinolin-4-yl]octane-1,8-diamine]: 0.448 µM; for `NCC(O)CNc1cc(N2CCCc3ccccc3C2)nc2ccccc12` (centres unmarked) [Example 118-8, 1-Amino-3-{[2-(1,3,4,5-tetrahydro-2H-2-benzazepin-2-yl)quinolin-4-yl]amino}propan-2-ol trifluoroacetate (salt)]: 0.223 µM.
Same read-out and setting: for `O=S1(=O)CCN(c2cc(NCC3(NCc4ccccc4)COC3)c3cc(Cl)ccc3n2)Cc2cc(F)ccc21` [Example 3-2, N-{[3-(Benzylamino)oxetan-3-yl]methyl}-6-chloro-2-(7-fluoro-1,1-dioxido-2,3-dihydro-1,4-benzothiazepin-4(5H)-yl)quinolin-4-amine] the value was 3.05 µM; for `Cc1ccc2nc(N3CCS(=O)(=O)c4ccccc4C3)cc(NC[C@H](O)CO)c2c1` [Example 3-10, (2S)-3-{[2-(1,1-Dioxido-2,3-dihydro-1,4-benzothiazepin-4(5H)-yl)-6-methylquinolin-4-yl]amino}propane-1,2-diol], 0.053 µM.
Same read-out and setting: the same measure for `Cc1cc2c(NCCN)cc(N3CCS(=O)(=O)c4ccccc4C3)nc2c(F)c1F` [Example 9-25, N-[2-(1,1-Dioxido-2,3-dihydro-1,4-benzothiazepin-4(5H)-yl)-7,8-difluoro-6-methylquinolin-4-yl]ethane-1,2-diamine]: 4.08 µM.
In the case of `Cc1ccc2nc(N3CCC(F)(F)c4ccccc4C3)cc(NCCOCCN)c2c1` [Example 110-2, N-[2-(2-Aminoethoxy)ethyl]-2-(5,5-difluoro-1,3,4,5-tetrahydro-2H-2-benzazepin-2-yl)-6-methylquinolin-4-amine], the EC50 turned out to be 2.61 µM.
On the same count and under the same terms, for `Cc1ccc2nc(N3CCC(F)(F)c4ccccc4C3)cc(NCC3(CN)COC3)c2c1` [Example 110-15, N-{[3-(Aminomethyl)oxetan-3-yl]methyl}-2-(5,5-difluoro-1,3,4,5-tetrahydro-2H-2-benzazepin-2-yl)-6-methylquinolin-4-amine] the value was 0.004 µM.
